Data on two compounds can be found in patent publication US10620214B2, “Chloroalkane penetration method for quantifying access of a molecule into a cell” (TRUSTEES OF TUFTS COLLEGE, priority 2016, dated 2020).

The data set deals with HaloEnzyme-GFP-expressing HeLa cell line. Briefly: Chloroalkane Penetration Assay (CAPA), cytosolic access. Format: cell-based. The text has this: FIG. 1A provides a schematic showing the experimental procedure of CAPA, which uses a HaloEnzyme-GFP-expressing HeLa cell line. […] For CAPA, cells are pre-treated with vehicle or peptide, washed, and chased with HTag-TAMRA. Cells treated with cell-penetrant molecules have had their HaloEnzyme blocked, thus preventing the HTag-TAMRA from covalently labeling the cells. In this schematic, the molecule of interest is a peptide.
FIG. 1C provides a graph showing the dose-dependent response curve of HTag-TAMRA signal after pre-incubation with different concentrations of HTag-cTMP, HTag-DD5o, and the negatively charged, linear variant HTag-DD5-neg. Data was normalized using the values obtained for vehicle (0% HTag-TAMRA signal inhibition) and for vehicle with no HTag-TAMRA added (100% signal inhibition). Points are means from three independent experiments and error bars show standard deviation.
The CAPA method uses a cell line that stably expresses a cytosolically-oriented protein as a fusion with GFP and Haloenzyme. Haloenzyme is a modified bacterial chloroalkane dehalogenase that covalently labels itself with the small, otherwise inert Haloligand functional group. If an exogenously added molecule bearing the Haloligand (a small chloroalkane) reaches the cytosol, it reacts exclusively with the Haloenzyme and blocks its active site. Following this incubation period, the amount of unreacted Haloenzyme was measured by chasing with a Haloligand-bearing dye (here, Htag-TAMRA). The relative amount of red cellular fluorescence after this chase was then quantified by flow cytometry. The red signal reported directly on the amount of free Haloenzyme, which is inversely proportional to the degree to which the added molecule accessed the cytoplasm during the incubation period.
Halo-GFP-Mitochondrial targeted (Mito.)+mCherry-dihydrofolate reductase (DHFR) HeLa cells were obtained from the Chenoweth Lab as described by (Ballister et al., Nat. Commun. 2014. 5, 1-9), which is incorporated herein by reference. The expression vector used for the incorporation of GFP-Haloenzyme is shown at FIG. 3. Cells were cultured using DMEM+10% FBS+1% Pen/Strep+1 μg/mL puromycin. For experiments, cells were seeded in a 24-well plate the day before at 1.0×10^5 cells/well. Materials for cell culture were purchased from Thermo Scientific.
Cells were rinsed 1× with PBS, then treated with peptides in acidified Opti-MEM (0.15% 6N HCl) for 4 hours. Media was aspirated and cells were washed for 30 min with phenol red-free DMEM+10% FBS+1% pen/strep. Cells were chased with 5 μM HTag-TAMRA (Promega) in phenol red-free DMEM+10% FBS+1% pen/strep for 30 min. Cells were washed for 15 min with phenol red-free DMEM+10% FBS+1% pen/strep. Cells were rinsed once with phosphate buffered saline (PBS), then trypsinized and transferred to 1.5 mL Eppendorf tubes. Cells were pelleted and washed twice with PBS. Cell pellet was resuspended in 250 μL of PBS and 200 μL were transferred to 96-well plate for flow cytometry analysis. Data was gated for live cells measuring 10,000 cells per sample. Mean fluorescence intensity was obtained in the Yellow channel for HTag-TAMRA, and data was normalized. Background yellow fluorescence was observed both by flow cytometry and microscopy due to the constituent expression of mCherry-DHFR, but the signal observed for HTag-TAMRA-treated cells was 10-fold higher than background.

Where [1] appears, read: 50 μM inhibitor for 1 hr, then biomolecule 4 hr at 37° C., FIG. 5D.

Turning to `N=C(N)NCCC[C@H](NC(=O)[C@H](CCCNC(=N)N)NC(=O)[C@H](CCCNC(=N)N)NC(=O)[C@H](CCCNC(=N)N)NC(=O)[C@H](CCCNC(=N)N)NC(=O)[C@H](CCCNC(=N)N)NC(=O)[C@H](CCCNC(=N)N)NC(=O)[C@H](CCCNC(=N)N)NC(=O)[C@H](CCCNC(=N)N)NC(=O)CCC(=O)NCCOCCOCCCCCCCl)C(N)=O` [Arg9], the “cytosolic penetration at 37° C. versus 4° C.” value is “significantly greater at 37 °C compared to 4 °C”. Further, under setting [1], the “effect of EIPA on cytosolic penetration” value is recorded as “no significant reduction in cytosolic penetration”.
Take `N[C@@H](Cc1c[nH]c2ccccc12)C(=O)O` [Trp]: under setting [1], the “effect of EIPA on cytosolic penetration” value is “no significant reduction in cytosolic penetration” and the “effect of chlorpromazine on cytosolic penetration” value is recorded as “no effect”. The “time course of cytosolic penetration” value (FIG. 5A) is listed as “time-dependent cytosolic penetration”.
